pIC50: −log10 of the molar value. Like-named read-outs stand apart in the source and are kept apart here.
Key:
E. rostratum conidia = assay: conidia growth inhibition ATP content assay (RPMI, 1536-well); assay type: cell-based, Exserohilum rostratum; conditions: for pIC50: read-out: Conidia IC50; for Conidia IC50: Inact. = no significant activity at the highest compound concentration (46 µM)
Protocol: (§1) Conidia and hyphae of E. rostratum were obtained as described by Richard et al., with the following modifications. Briefly, conidia were harvested from Potato Dextrose Agar (PDA) cultured media with 0.05% Tween 80, and the conidial suspension was filtered using a Cell Strainer (100 µm, BD Falcon REF 352340). After centrifugation at 700g for 10 min, the suspension was decanted and conidia were resuspended at 1×10^5 per ml in RPMI and counted in a hemocytometer. Hyphae were harvested from yeast extract peptone dextrose (YPD) culture media with 0.05% Tween 80. Hyphal fragments were sized by vortexing 15 sec twice with 0.4 mm glassbeads, and the hyphae suspension was filtered by cheese cloth twice. […] To normalize concentrations of hyphal fragments for batch to batch consistency, carbohydrate analysis was performed by a phenol-sulfuric acid method as previously described. The final stock concentration of hyphae was adjusted to 1.0 (OD490) per 100 µl.
(§2) The ATPLite assay kit, consisting of luciferase/luciferin and detergent, was used to quantitate cellular ATP levels as a marker for cell viability (Table 1). For assay development, hyphal fragments or conidia in PBS were plated in a seeding density of 3,750, 7,500 and 15,000 cellular particles/well with a final volume of 5 µl/well using the Multidrop-Combi dispenser in white 1536-well plates. Conidia or hyphae fragments were incubated for 24 h at 37°C in a 5% CO2 humidified atmosphere. ATPLite detection reagents were added at 4 µl/well. The assay plates were incubated at room temperature for 15 minutes before reading luminescence intensity on a ViewLux plate reader (Perkin Elmer, Waltham, MA). Conidia suspended in RPMI medium were inoculated at concentrations of 62.5, 125 and 250 conidia/well with a final volume of 5 µl/well in white 1536-well plates. The conidia assay was developed and optimized in the same way as the hyphal assay.
(§3) The LOPAC library (Sigma-Aldrich) has been extensively used for HTS assay validations, [18]. The NIH Chemical Genomics Center Pharmaceutical (NPC) collection was constructed in-house through a combined effort of compound purchasing and custom synthesis and recently expanded to 4096 compounds. […] 2.5 µl/well PBS was dispensed into 1536-well plates using a Multidrop-Combi dispenser. Compound in DMSO solution was transferred in a volume of 23 nl/well using a NX-TR pintool station (WAKO Scientific Solutions, San Diego, CA). This additional PBS step for compound addition was designed to prevent the potential fungal contamination of compound libraries. The hyphal fragments in PBS were then added at 2.5 µl/well for a final seeding density of 15,000 hyphal fragments/well using the Multidrop-Combi dispenser. The final compound concentration was 46 µM in the primary screen. The assay plates were incubated for 24 h at 30°C before the detection of cellular viability with the ATP content assay. Screen of conidia was performed in a similar way except that PBS was replaced with RPMI medium and conidia were plated for a final seeding density of 250 conidia/well.
(§4) The primary screen data and curve fitting were analyzed using software developed internally at the NIH Chemical Genomics Center (NCGC). Total signals for cellular viability (100% cellular viability) were calculated from the wells with DMSO solvent and the complete cell killing (0% cellular viability) was calculated from 46 µM amphotericin B treated wells. […] All values were expressed as the mean +/− SD (n≥3).

SH-SY5Y cells = assay: SH-SY5Y cytotoxicity counter-screen (ATP content assay); assay type: cell-based, Human; conditions: for SH-SY5Y % Max. Resp.: Table 2, SH-SY5Y, inact. = no significant activity at 46 µM; for SH-SY5Y % M. Res. / SH-SY5Y IC50: Table S1; for SH-SY5Y % M. Res.: Inact. = no significant activity at 46 µM; for SH-SY5Y IC50: Inact. = no significant activity at the highest compound concentration (46 µM)
Protocol: Human neuroblastoma SH-SY5Y cell line (Catalog No. CRL-2266) was purchased from ATCC (Manassas, VA). SH-SY5Y cell line was cultured in 175-cm^2 tissue culture flasks (Costar, Cambridge, MA) with 30 ml of growth medium at 37°C in a 5% CO2 humidified atmosphere. Growth medium was made with Dulbecco's Modified Eagle Medium: Nutrient Mixture F-12 with 10% fetal bovine serum (FBS). Growth medium was replaced every other day and cells were passed at 75% confluence.
as §2
Two small known compound libraries including the LOPAC (1280 compounds) and approved drugs (4096 compounds) were screened in parallel using the above optimized assays for hyphae and conidia in 1536-well plates (Fig. 4). […] A mammalian SH-SY5Y cell line was used in parallel as a counter-screen with the same ATP content assay kit to assess the specificity of these compounds for E. rostratum.

[1] = tested on: E. rostratum hyphal fragments; assay: hyphal fragment fungicidal ATP content assay (PBS, 1536-well); assay type: cell-based, Exserohilum rostratum; conditions: for Emax / Hyphae % M. Res. / Hyphae % Max. Resp.: 46 µM Amphotericin B = 100%; for pIC50: read-out: Hyphae IC50
Protocol: as §1, §2, §3, §4

[2] = Exserohilum rostratum, 24 h, Table 2, 24 h, inact. = no significant activity at the highest compound concentration (46 µM)
[3] = Exserohilum rostratum, Table 2, 46 µM Amphotericin B = 100%, inact. = no significant activity at 46 µM, read-out: Conidia % Max. Resp.
[4] = Exserohilum rostratum, Table 2, inact. = no significant activity in the primary screen, read-out: Hyphae % Max. Resp.
[5] = Exserohilum rostratum, Table 2, 24 h, inact. = no significant activity in the primary screen
[6] = Table S1, 46 µM Amphotericin B = 100%, Inact. = no significant activity at 46 µM
[7] = Table S1, Inact. = no significant activity in the primary screen
[8] = Table 2, inact. = no significant activity in the primary screen
[9] = Table 2, 24 h, inact. = no significant activity in the primary screen
[10] = Exserohilum rostratum, Table S1, Inact. = no significant activity in the primary screen, read-out: Hyphae % M. Res.

Row | Compound | Emax (E. rostratum conidia; [3]) [%] | SH-SY5Y % Max. Resp. (SH-SY5Y cells; 46 µM Amphotericin B = 100%) | SH-SY5Y % Max. Resp. (SH-SY5Y cells) | Conidia % M. Res. (E. rostratum conidia; [6]) | Conidia IC50 (E. rostratum conidia; Table S1) | SH-SY5Y % M. Res. (SH-SY5Y cells; 46 µM Amphotericin B = 100%) | SH-SY5Y IC50 (SH-SY5Y cells) | Hyphae % M. Res. [1, 7] | Hyphae IC50 [1, 7] | other results
1 | C=CCOC(Cn1ccnc1)c1ccc(Cl)cc1Cl (stereo not drawn) [Enilconazole] | 102 | inact. | inact. |  |  |  |  |  |  | pIC50 (E. rostratum conidia; [2]): 5.76; Emax [1, 4]: 73%; pIC50 [1, 5]: 6.51
2 | CCCCCCOc1ccccc1C(N)=O [Exalamide] |  |  |  | Inact. | Inact. | Inact. | Inact. | Inact. | Inact. | 
3 | Oc1ccc(Cl)cc1Sc1cc(Cl)ccc1O [Fenticlor] | 107 | inact. | inact. |  |  |  |  |  |  | pIC50 (E. rostratum conidia; Exserohilum rostratum, 24 h): 5.24; Hyphae % Max. Resp. [1, 8]: inact.; Hyphae IC50 [1, 9]: inact.
4 | Cc1ccc(/C=N/n2c(-c3ccccc3)csc2=S)cc1 [Fezatione] |  |  |  | Inact. | Inact. | Inact. | Inact. | Inact. | Inact. | 
5 | OC(Cn1cncn1)(Cn1cncn1)c1ccc(F)cc1F [Fluconazole] |  |  |  | Inact. | Inact. | Inact. | Inact. | Inact. | Inact. | activity in the conidia assay (E. rostratum conidia; concentrations up to 46 µM): no activity; activity in the hyphae assay ([1]; concentrations up to 46 µM): no activity
6 | Nc1[nH]c(=O)ncc1F [Flucytosine] |  |  |  | Inact. | Inact. | Inact. | Inact. | Inact. | Inact. | 
7 | O=P(O)(O)OC(Cn1cncn1)(Cn1cncn1)c1ccc(F)cc1F [Fosfluconazole] |  |  |  | Inact. | Inact. | Inact. | Inact. | Inact. | Inact. | 
8 | COC1=CC(=O)C[C@@H](C)[C@]12Oc1c(Cl)c(OC)cc(OC)c1C2=O [Griseofulvin] |  |  |  | Inact. | Inact. | Inact. | Inact. | Inact. | Inact. | 
9 | Oc1c(Cl)cc(Cl)c(Cl)c1Cc1c(O)c(Cl)cc(Cl)c1Cl [Hexachlorophene] |  | inact. | inact. |  |  |  |  |  |  | pIC50 (E. rostratum conidia; Exserohilum rostratum, 24 h): 5.40; Emax (E. rostratum conidia; Exserohilum rostratum, read-out: Conidia % Max. Resp.): 109%; Hyphae % Max. Resp. [1, 8]: inact.; Hyphae IC50 [1, 9]: inact.
10 | Oc1c(I)cc(I)c2cccnc12 [Iodoquinol] | 99 | 58% | 26.3% |  |  |  |  |  |  | pIC50 (E. rostratum conidia; [2]): 5.56; Hyphae % Max. Resp. [1, 8]: inact.; Hyphae IC50 [1, 9]: inact.
11 | CC(=O)N1CCN(c2ccc(OCC3COC(Cn4ccnc4)(c4ccc(Cl)cc4Cl)O3)cc2)CC1 (stereo not drawn) [Ketoconazole] | 101 | inact. | inact. |  |  | Inact. | Inact. |  |  | pIC50 (E. rostratum conidia; [2]): 5.46; Emax (E. rostratum conidia; Exserohilum rostratum, Table S1, 46 µM Amphotericin B = 100%, Inact. = no significant activity at 46 µM, read-out: Conidia % M. Res.): 101%; Emax [1, 4]: 74%; pIC50 [1, 5]: 5.62; Emax [1, 10]: 74%
12 | CCCCCCC(=O)CCCCCC/C=C/C[C@@H](O)[C@H](O)[C@@](N)(CO)C(=O)O [Myriocin] | 92 | inact. | inact. |  |  |  |  |  |  | pIC50 (E. rostratum conidia; [2]): 4.87; Emax [1, 4]: 81%; pIC50 [1, 5]: 5.56
13 | C[C@@H]1C/C=C/C=C/C=C/C=C/[C@H](O[C@@H]2O[C@H](C)[C@@H](O)[C@H](N)[C@@H]2O)C[C@@H]2O[C@](O)(C[C@@H](O)C[C@H]3O[C@@H]3/C=C/C(=O)O1)C[C@H](O)[C@H]2C(=O)O [Natamycin] |  |  |  | Inact. | Inact. | Inact. | Inact. |  |  | Emax [1, 10]: 66%; pIC50 ([1]; Exserohilum rostratum, Table S1, Inact. = no significant activity in the primary screen): 4.33
14 | CC1(C)CCC(NC(=O)[C@@H](N)CCC(=O)O)CC1 [Neboglamine] |  |  |  | Inact. | Inact. | Inact. | Inact. | Inact. | Inact. | 
15 | O=C1[O][Pt]2([NH][C@@H]3CCCC[C@H]3[NH]2)[O]C1=O [Oxaliplatin] |  | inact. | inact. |  |  |  |  |  |  | Conidia % Max. Resp. (E. rostratum conidia; Table 2, 46 µM Amphotericin B = 100%, inact. = no significant activity at 46 µM): 95%; pIC50 (E. rostratum conidia): 5.31; Hyphae % Max. Resp. [1, 8]: 76%; pIC50 [1, 9]: 6.03

Source: article PMC3749181, “Rapid Identification of Antifungal Compounds against Exserohilum rostratum Using High Throughput Drug Repurposing Screens” (PLoS ONE, 2013)
